{"source": "patent US8263591B2", "about": "“Bicyclic amides for enhancing glutamatergic synaptic responses” (Cortex Pharmaceuticals, Inc., priority 2007, dated 2012)", "key": {"AMPA receptor": {"system": "AMPA receptor", "test": "In vivo electrophysiology: amplitude of field EPSP in dentate gyrus of anesthetized animals", "description": "(§1) The electrophysiological effects of the invention compounds were tested in vivo in anesthetized animals according to the following procedures. Animals are maintained under anesthesia by phenobarbital administered using a Hamilton syringe pump. Stimulating and recording electrodes are inserted into the perforant path and dentate gyrus of the hippocampus, respectively. Once electrodes are implanted, a stable baseline of evoked responses are elicited using single monophasic pulses (100 μs pulse duration) delivered at 3/min to the stimulating electrode. Field EPSPs are monitored until a stable baseline is achieved (about 20-30 min), after which a solution of test compound is injected intraperitoneally and evoked field potentials are recorded. Evoked potentials were recorded for approximately 2 h following drug administration or until the amplitude of the field EPSP returns to baseline. In the latter instance, it is common that an iv administration is also carried out with an appropriate dose of the same test compound. Invention compounds were assayed in the in vivo electrophysiology assay described above and data for representative test compounds is shown in column 1 in Table 1.\nThe electrophysiological effects of invention compounds were tested in vivo in anesthetized animals according to the following procedures.\nas §1, with “Animals” for “The electrophysiological effects of the invention compounds were tested in vivo in anesthetized animals according to the following procedures. Animals”, “are” for “were”, “compound.” for “compound. Invention compounds were assayed in the in vivo electrophysiology assay described above and data for representative test compounds is shown in column 1 in Table 1.”"}, "Male CD1 mice": {"system": "Male CD1 mice", "test": "Inhibition of d-Amphetamine stimulated locomotion", "type": "in vivo", "conditions": "18 mpk i.p., d-amphetamine 2 mg/kg", "description": "The ability of the invention compounds to inhibit d-Amphetamine stimulated locomotor activity was assayed according to the following procedure. Male CD1 mice, 25-30 gm body o weight, were brought into the experimental room and allowed at least 30 min of acclamation.\nEach mouse was placed into the testing enclosure with an infrared beam array that automatically monitors the animal's activity. Mice were habituated in the testing enclosure for 20 min, and then returned to their home cage. Mice were dosed intraperitoneally with test compound in appropriate vehicle 5 minutes before d-Amphetamine injection (2 mpk). Ten minutes after d-Amphetamine injection, mice were tested for locomotor activity for a total of 15 minutes. The data was computer collected and expressed as “arbitrary movement units.” All data were analyzed by comparing the groups treated with the test compound to the vehicle control group. The data shown is the % inhibition of hyperactivity induced by acute administration of 2 mg/kg d-amphetamine in mice. […]\nMale CD1 mice, 25-30 gm body weight, were brought into the experimental room and allowed at least 30 min of acclamation. […] The data was computer collected and expressed as “arbitrary movement units.” All data were analyzed by comparing the groups treated with the test compound to the vehicle control group."}}}
{"smiles": "O=C(c1ccc2nonc2c1)N1CC2C=CC1C2", "note": "(stereo not drawn) [Example 11, 2-Azabicyclo[2.2.1]hept-5-en-2-yl([2,1,3]-benzoxadiazol-5-yl)methanone]", "values": [{"measurement": "melting point", "value": "106 to 108", "unit": "°C"}]}
{"smiles": "O=C(c1ccc2nonc2c1)N1CC2CC1CO2", "note": "(stereo not drawn) [Example 10, [2,1,3]-benzoxadiazol-5-yl(2-oxa-5azabicyclo[2.2.1]hept-5-yl)methanone]", "values": [{"measurement": "melting point", "value": "102 to 104", "unit": "°C"}]}
{"smiles": "O=C1CC2CCC(C1)N2C(=O)c1ccc2nonc2c1", "note": "[Example 2, 8-([2,1,3]-Benzoxadiazol-5-ylcarbonyl)-8-azabicyclo[3.2.1]octan-3-one]", "values": [{"measurement": "% increase in the amplitude of the field EPSP in the dentate gyrus of rat", "setting": "AMPA receptor; 10 mpk i.p.", "value": 16, "unit": "%"}, {"measurement": "% Inhibition of d-amphetamine stimulated locomotion", "setting": "Male CD1 mice", "value": 40, "unit": "%"}, {"measurement": "melting point", "value": "164 to 166", "unit": "°C"}]}
{"smiles": "O=C(c1ccc2nonc2c1)N1CC2CC1C(Cl)C2Cl", "note": "(stereo not drawn) [Example 14, [2,1,3]-Benzoxadiazol-5-yl(5,6-dichloro-2-azabicyclo[2.2.1]hept-2-yl)methanone]", "values": [{"measurement": "melting point", "value": "156 to 157", "unit": "°C"}]}
{"smiles": "O=C(c1ccc2nonc2c1)N1C2CCC1CC(O)C2", "note": "(stereo not drawn) [5]", "values": [{"measurement": "melting point", "value": "169 to 171", "unit": "°C"}]}
{"smiles": "O=C(c1ccc2nonc2c1)N1C2CCC1CC(O)C2", "note": "(stereo not drawn) [6]", "values": [{"measurement": "melting point", "value": "176 to 177", "unit": "°C"}]}
{"smiles": "O=C(c1ccc2nonc2c1)N1C2CCC1CC2", "values": [{"measurement": "melting point", "value": "143 to 144", "unit": "°C"}]}
{"smiles": "O=C(c1ccc2nonc2c1)N1C2CCC1CC(F)(F)C2", "note": "[Example 3, [2,1,3]-Benzoxadiazol-5-yl(3,3-difluoro-8-azabicyclo[3.2.1]oct-8-yl)methanone]", "values": [{"measurement": "% increase in the amplitude of the field EPSP in the dentate gyrus of rat", "setting": "AMPA receptor; 10 mpk i.p.", "value": 8, "unit": "%"}, {"measurement": "melting point", "value": "165 to 166", "unit": "°C"}]}
{"smiles": "O=C(c1ccc2nonc2c1)N1C2C=C(F)CC1CC2", "note": "(stereo not drawn) [Example 4, [2,1,3]-benzoxadiazol-5-yl(3-fluoro-8-azabicyclo[3.2.1]oct-2-en-8-yl)methanone]", "values": [{"measurement": "% increase in the amplitude of the field EPSP in the dentate gyrus of rat", "setting": "AMPA receptor; 10 mpk i.p.", "value": 25, "unit": "%"}]}
{"smiles": "O=C(c1ccc2nonc2c1)N1CC2CCC1CC2", "note": "[Example 9, 2-Azabicyclo[2.2.2]oct-2-yl([2,1,3]-benzoxadiazol-5-yl)methanone]", "values": [{"measurement": "melting point", "value": "138 to 139", "unit": "°C"}]}
{"smiles": "O=C(c1ccc2nonc2c1)N1CC2CCC1C2", "note": "(stereo not drawn) [Example 7, 2-Azabicyclo[2.2.1]hept-2-yl([2,1,3]-benzoxadiazol-5-yl)methanone]", "values": [{"measurement": "% increase in the amplitude of the field EPSP in the dentate gyrus of rat", "setting": "AMPA receptor; dosed i.v.", "value": 20, "unit": "%^3"}, {"measurement": "melting point", "value": "92 to 93", "unit": "°C"}]}
{"smiles": "O=C(c1ccc2nonc2c1)N1C2CCCC1CC2", "note": "[Example 1, 8-Azabicyclo[3.2.1]oct-8-yl([2,1,3]-benzoxadiazol-5-yl)methanone]", "values": [{"measurement": "% increase in the amplitude of the field EPSP in the dentate gyrus of rat", "setting": "AMPA receptor; 10 mpk i.p.", "value": 22, "unit": "%"}, {"measurement": "% Inhibition of d-amphetamine stimulated locomotion", "setting": "Male CD1 mice", "value": 69, "unit": "%"}, {"measurement": "melting point", "value": "128 to 130", "unit": "°C"}]}
